Assays:
[1] = system: wheat; assay: Test A postemergence; format: in vivo, Triticum aestivum
In short: (§1)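 Injury scores run from 0, no effect, to 100, complete control, judged by eye against untreated plants roughly 10 days after treatment. Chemicals carried a surfactant in a non-phytotoxic solvent and went onto loam–sand soil preemergence or onto one- to two-leaf seedlings postemergence.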

[2] = system: corn; assay: Test A postemergence; format: in vivo, Zea mays
In short: as §1

[3] = system: sedge, umbrella; assay: Test B flooded paddy test; format: in vivo, Cyperus difformis; conditions: Flood, 250 g ai/ha; 0 to 100 scale where 0 is no effect and 100 is complete control
In short: (§2)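 Plants were grown to the 2-leaf stage, then pots were flooded to 3 cm above the soil and compounds were applied directly into the paddy water. That depth was held throughout, and after 13 to 15 days in the greenhouse injury was rated visually against controls on a 0–100 scale (0 no effect, 100 complete control).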

[4] = system: velvetleaf; assay: Test A preemergence; format: in vivo, Abutilon theophrasti; conditions: for Plant response rating, Velvetleaf: 125 g ai/ha, 0 to 100 scale where 0 is no effect and 100 is complete control; for Velvetleaf plant response rating: 500 g ai/ha, 0 to 100 scale, 0 no effect, 100 complete control, approx. 10 days
In short: as §1

[5] = system: giant foxtail; assay: Test A preemergence; format: in vivo, Setaria faberii; conditions: for Plant response rating, Foxtail, Giant: 125 g ai/ha, 0 to 100 scale where 0 is no effect and 100 is complete control; for Foxtail, Giant plant response rating: 500 g ai/ha, 0 to 100 scale, 0 no effect, 100 complete control, approx. 10 days
In short: as §1

[6] = system: giant foxtail; assay: Test A postemergence; format: in vivo, Setaria faberii
In short: as §1

[7] = system: corn; assay: Test A preemergence; format: in vivo, Zea mays; conditions: for Plant response rating, Corn: 125 g ai/ha, 0 to 100 scale where 0 is no effect and 100 is complete control; for Corn plant response rating: 500 g ai/ha, 0 to 100 scale, 0 no effect, 100 complete control, approx. 10 days
In short: as §1

[8] = system: morningglory; assay: Test A postemergence; format: in vivo, Ipomoea spp.
In short: as §1

[9] = system: barnyardgrass; assay: Test A preemergence; format: in vivo, Echinochloa crus-galli; conditions: for Plant response rating, Barnyardgrass: 125 g ai/ha, 0 to 100 scale where 0 is no effect and 100 is complete control; for Barnyardgrass plant response rating: 500 g ai/ha, 0 to 100 scale, 0 no effect, 100 complete control, approx. 10 days
In short: as §1

[10] = system: rice; assay: Test B flooded paddy test; format: in vivo, Oryza sativa; conditions: Flood, 250 g ai/ha; 0 to 100 scale where 0 is no effect and 100 is complete control
In short: as §2

[11] = system: morningglory; assay: Test A preemergence; format: in vivo, Ipomoea spp.; conditions: for Plant response rating, Morningglory: 125 g ai/ha, 0 to 100 scale where 0 is no effect and 100 is complete control; for Morningglory plant response rating: 500 g ai/ha, 0 to 100 scale, 0 no effect, 100 complete control, approx. 10 days
In short: as §1

[12] = system: Heteranthera limosa; assay: Test B flooded paddy test; format: in vivo; conditions: Flood, 250 g ai/ha; 0 to 100 scale where 0 is no effect and 100 is complete control
In short: as §2

[13] = system: large (Lg) crabgrass; assay: Test A postemergence; format: in vivo, Digitaria sanguinalis
In short: as §1

[14] = system: pigweed; assay: Test A preemergence; format: in vivo, Amaranthus retroflexus; conditions: for Plant response rating, Pigweed: 125 g ai/ha, 0 to 100 scale where 0 is no effect and 100 is complete control; for Pigweed plant response rating: 500 g ai/ha, 0 to 100 scale, 0 no effect, 100 complete control, approx. 10 days
In short: as §1

[15] = system: large (Lg) crabgrass; assay: Test A preemergence; format: in vivo, Digitaria sanguinalis; conditions: for Plant response rating, Crabgrass, Large: 125 g ai/ha, 0 to 100 scale where 0 is no effect and 100 is complete control; for Crabgrass, Large plant response rating: 500 g ai/ha, 0 to 100 scale, 0 no effect, 100 complete control, approx. 10 days
In short: as §1

[16] = system: barnyardgrass; assay: Test A postemergence; format: in vivo, Echinochloa crus-galli
In short: as §1

[17] = system: pigweed; assay: Test A postemergence; format: in vivo, Amaranthus retroflexus
In short: as §1

[18] = system: wheat; assay: Test A preemergence; format: in vivo, Triticum aestivum; conditions: for Plant response rating, Wheat: 125 g ai/ha, 0 to 100 scale where 0 is no effect and 100 is complete control; for Wheat plant response rating: 500 g ai/ha, 0 to 100 scale, 0 no effect, 100 complete control, approx. 10 days
In short: as §1

[19] = system: velvetleaf; assay: Test A postemergence; format: in vivo, Abutilon theophrasti
In short: as §1

[20] = system: barnyardgrass; assay: Test B flooded paddy test; format: in vivo, Echinochloa crus-galli; conditions: Flood, 250 g ai/ha; 0 to 100 scale where 0 is no effect and 100 is complete control
In short: as §2

[21] = 125 g ai/ha, 0 to 100 scale where 0 is no effect and 100 is complete control
[22] = 500 g ai/ha, 0 to 100 scale, 0 no effect, 100 complete control

| Structure (SMILES) | Plant response rating, Wheat [1, 21] | Plant response rating, Wheat [1, 22] | Plant response rating, Corn [2, 21] | Plant response rating, Corn [2, 22] | Plant response rating, Sedge, Umbrella [3] | Plant response rating, Velvetleaf [4] | Velvetleaf plant response rating [4] | Plant response rating, Foxtail, Giant [5] | Foxtail, Giant plant response rating [5] | Plant response rating, Foxtail, Giant [6, 21] | Plant response rating, Foxtail, Giant [6, 22] | Plant response rating, Corn [7] | Corn plant response rating [7] | Plant response rating, Morningglory [8, 21] | Plant response rating, Morningglory [8, 22] | Plant response rating, Barnyardgrass [9] | Barnyardgrass plant response rating [9] | Plant response rating, Rice [10] | Plant response rating, Morningglory [11] | Morningglory plant response rating [11] | other results |
| --- | --- | --- | --- | --- | --- | --- | --- | --- | --- | --- | --- | --- | --- | --- | --- | --- | --- | --- | --- | --- | --- |
| Clc1cnc(Oc2ccccc2-n2cc(-c3ccccc3)cn2)nc1 [Compound 22] | 0 | 0 | 0 | 30 | 80 | 0 | 20 | 20 | 90 | 40 | 90 | 0 | 0 | 80 | 90 | 0 | 20 | 40 | 0 | 0 | Plant response rating, Ducksalad [12]: 65; Plant response rating, Crabgrass, Large [13, 21]: 30; Plant response rating, Crabgrass, Large [13, 22]: 70; Plant response rating, Pigweed [14]: 20; Pigweed plant response rating [14]: 90; Plant response rating, Crabgrass, Large [15]: 20; Crabgrass, Large plant response rating [15]: 90; Plant response rating, Barnyardgrass [16, 21]: 50; Plant response rating, Barnyardgrass [16, 22]: 70; Plant response rating, Pigweed [17, 21]: 50; Plant response rating, Pigweed [17, 22]: 100; Plant response rating, Wheat [18]: 0; Wheat plant response rating [18]: 0; Plant response rating, Velvetleaf [19, 21]: 50; Plant response rating, Velvetleaf [19, 22]: 100; Plant response rating, Barnyardgrass [20]: 20 |
| CC=Cc1cnn(-c2ccccc2Oc2ncc(Cl)cn2)c1 [Compound 27] | 0 | 0 | 0 | 10 | 75 | 0 | 10 | 0 | 40 | 0 | 30 | 0 | 0 | 10 | 50 | 0 | 20 | 0 | 0 | 0 | Plant response rating, Ducksalad [12]: 75; Plant response rating, Crabgrass, Large [13, 21]: 20; Plant response rating, Crabgrass, Large [13, 22]: 60; Plant response rating, Pigweed [14]: 10; Pigweed plant response rating [14]: 20; Plant response rating, Crabgrass, Large [15]: 0; Crabgrass, Large plant response rating [15]: 50; Plant response rating, Barnyardgrass [16, 21]: 0; Plant response rating, Barnyardgrass [16, 22]: 10; Plant response rating, Pigweed [17, 21]: 60; Plant response rating, Pigweed [17, 22]: 70; Plant response rating, Wheat [18]: 0; Wheat plant response rating [18]: 0; Plant response rating, Velvetleaf [19, 21]: 50; Plant response rating, Velvetleaf [19, 22]: 70; Plant response rating, Barnyardgrass [20]: 0 |
